Source: patent publication US20260125357A1, “LACTATE ENHANCING COMPOUNDS AND USES THEREOF” (GLIAPHARM SA, priority 2022, published 2026)

How the values were obtained:
primary astrocytes [1] = assay: Extracellular medium acidification (SNARF5) assay in astrocytes; type: cell-based; conditions: Mus musculus, Astrocyte; astrocytes in vitro; compounds 10 nM to 30 μM; read-out: Activity (EC50 class, extracellular medium acidification SNARF5)
Description: To assess for the effect of the compounds of the invention, those were tested in primary mouse astrocytes and astrocytes differentiated from human-derived induced pluripotent stem cells (iPSCs). Secretion of lactate was measured indirectly through the acidification of extracellular medium using extracellular pH sensor SNARE-5F-(AND-6)-CAR (SNARF5) as described below.
(§1) Primary cultures of cerebrocortical astrocytes were obtained from 1 to 2-day-old OF1 mouse pups (Charles River Laboratories). Briefly, cortices were isolated and minced in small pieces under a dissecting microscope. The cells were incubated for 30 min at 37° C. in a solution containing 20 U/ml papain, 1 mM L-cysteine and 10 kU/ml DNase I. After dissociation, papain activity was stopped by the addition of fetal calf serum (FCS). Single-cell suspension was then obtained by mechanical dissociation, which consisted in cells trituration in a DMEM D7777 medium supplemented with 44 mm NaHCO3, 10 ml/L antibiotic/antimycotic solution and 10% FCS. The cells were seeded at an average density of ˜10′000 cells/cm^2 on poly-D-lysine coated 96- or 12-well culture plates, depending on their use, and grown in DMEM D7777 medium supplemented with 44 mm NaHCO3, 10 ml/L antibiotic/antimycotic solution and 10% FCS at 37° C. in a humidified atmosphere containing 5% CO2/95% air. Culture medium was renewed twice a week. Cells were stimulated and harvested between DIV14 and DIV17, when confluence and cell growth were optimal.
Secretion of lactate was measured indirectly through the acidification of extracellular medium using extracellular pH sensor SNARF-5F-(AND-6)-CAR (SNARF5). After washing cells twice with stimulation medium (DMEM (D5030, Sigma), 1 mM […], and 5 mM Glucose, pH 7.4) at 37° C., cells were stimulated with compounds at a final concentration ranging from 10 nM to 30 μM in 50 μl per well of stimulation medium supplemented with 10 μM of SNARF5 (Life Technologies Corporation). Each compound was tested in two different plates for duplicates. After 30, 60 and 90 min stimulation, fluorescence was read at exc. (excitation) 480 nm/emm. (emission) 580 nm and at exc 480 nm/emm. 630 nm. The ratio of fluorescence between 630 nm and 580 emission values, which is proportional to extracellular pH, was calculated. In each plate, 8 wells were used for negative controls (DMSO 0.1%) and 8 wells were used for positive controls (CCCP 2 μM in DMSO). Results are shown as % of positive control effect (0% and 100% being activities of the Veh and positive control, respectively).

primary astrocytes [2] = assay: MTT mitochondrial activity assay in primary astrocytes; type: cell-based, mouse; conditions: different concentrations, after 1.5 h or 24 h
Description: as §1
To monitor mitochondrial activity in astrocytes, which is linked to the metabolic process of glycolysis and production of lactate, astrocytes in 96-well plates were stimulated for 24 h (37° C. 5% CO2/95% air) with the compounds of the invention ranging from 10 nM to 10 μM.
After stimulation, 5 mg/ml thiazol blue tetrazolium bromide (MTT) in D5030 medium complemented with 5 mM D-glucose and 44 mM sodium bicarbonate (pH 7.2) was added to each well, and cells were incubated for 4 h at 37° C. (5% CO2). The medium was then removed and the amount of reduced MTT, i.e formazan, solubilized in DMSO (50 μl/well) was determined using a spectrophotometer (absorbance of 570 nm).
The mitochondrial activity was monitored in MTT colorimetric assay in primary astrocytes treated with Compounds (1), (2), (3), (4) (5), (9) and (10) at different concentrations after 1.5 h (FIG. 2 A, B, D, E, F, C, H, respectively) or 24 h (FIG. 2 H, I, K, L, M, J, N, respectively).

C57Bl/6J wild-type mice [3] = assay: Lactate and glucose biosensors, cerebral extracellular levels in freely moving mice; type: in vivo, mouse; conditions: per os, doses 10 to 30 mg/kg, 3 hours, AUC ratio vs vehicle
Description: (§2) All experiments were carried out in strict accordance with the Swiss Federal Guidelines for Animal Experimentation and were approved by the Cantonal Veterinary Office for Animal Experimentation (Canton of Geneva, Switzerland). Adult male C57Bl/6J wild-type mice weighting 18-28 g (8 to 12 weeks of age) were used (Charles River Laboratories). Animals were housed in groups of 3-5 in polypropylene cages (30×40×15 cm) with wire mesh top in a temperature (22±2° C.) and humidity (55±15%) controlled environment on a 12-hour light cycle (07.00-19.00 h lights on), except after surgeries when animal were housed individually. The samples (Vehicle or compounds of the invention) were administered per os (gavage) in a solution made of water supplemented with 0.4% hydroxypropyl methylcellulose (HPMC) Methocel 4 KM (w/v) and 0.25% Tween-20 (v/v), as previously described (Thackaberry et al., 2010, Toxicol Sci., 117(2):485-92). Concentrations of the compounds tested ranged from 3 to 30 mg/kg.
Cerebral extracellular levels of L-lactate and D-glucose were monitored in vivo using lactate and glucose biosensors (Pinnacle Technology), respectively, according to the manufacturer's instructions. Cannulae were surgically implanted in the medial prefrontal cortices (coordinates: −1.0 mm (to bregma), lateral+/−1.0 mm (to mideline), ventral −1.0 mm (to dura))) of isoflurane-anesthetized mice 5 to 7 days prior experiment. After surgery, mice were monitored closely and received analgesic treatment for at least 4 days. After mice had fully recovered from surgery, compounds of the invention of vehicle were administered per os as previously described and cerebral levels of extracellular lactate and glucose were dynamically recorded for 6 hours using biosensors. Mice were administered vehicle alone first, followed 3 hours later by vehicle or Compounds of the Invention. Concentrations of cerebral extracellular lactate and glucose were calculated from the biosensor electric signals using post-calibration values. […] Area Under the Curve (AUC) of lactate and glucose concentration curves were calculated using Graphad Prism and the ratio of AUC after drug over Vehicle administration was calculated. Extracellular concentrations of lactate and glucose were measured in real time in freely moving animals for 3 hours after administration of Vehicle or compounds (1) to (4) at doses ranging from 10 to 30 mg/kg (FIG. 5).

C57Bl/6J wild-type mice [4] = assay: 18F-FDG PET glucose uptake in the brain; type: in vivo, mouse; conditions: gavage, 30 mg/kg, vs Vehicle
Description: as §2
^18F-FDG PET Glucose uptake in the brain was measured in vivo using 18F-fluorodeoxyglucose (FDG) with positron emission tomography (PET) Scan. Mice were fasted for 12 hours before the scans PET/CT measurements. Compounds of the invention were administered by gavage, followed by an intraperitoneal injection of 5 MBq of ^18F-FDG in 300 μL of saline. […]

GLUT1-DS transgenic mice = assay: Rotarod motor function in GLUT1-DS transgenic mice; type: in vivo, mouse; conditions: single administration 10 mg/kg, 20 min before rotarod
From the text: (§3) Heterozygous transgenic mice on 129/SvJ genetic background in which glucose transporter 1 (GLUT1) has been knocked down were used (GLUT1(+/−)) (Wang et al., 2016, Human Molecular Genetics, 15(7)). GLUT1-deficiency syndrome (GLUT1-DS) is a prototypic hypometabolic diseases caused by the mutation of GLUT1 and decreased levels of glucose and lactate in the brain (Tang et al., 2019, Annals of Clinical and Translational Neurology 6(9)). Mating colonies were composed of wild-type female mice and GLUT1-DS male mice, or GLUT1-DS female mice and wild-type male mice. F1 pups were genotyped after ear punching at weaning using PCR to determine genotype. Mice of 2 to 3 months of age were used.
Motor function was measured in wild-type (WT) and GLUT 1-DS transgenic mice in the rotarod after single administration of Veh. or compound (1) or (2) (10 mg/kg) 20 min before rotarod. Rotarod testing consisted in placing the mouse on an accelerating rotating rod (4 to 40 r.p.m.) during a maximum of 300 seconds. 3 consecutive sessions with 15 min apart were performed. Latency for the mouse to fall from the rod was recorded and the maximal latency over the 3 trials was used as a measure of motor function.

[5] = tested on: Wild-type (WT) and GLUT1-DS transgenic mice; assay: Grip strength test in WT and GLUT1-DS transgenic mice; type: in vivo, mouse; conditions: 10 mg/kg, after rotarod session
From the text: as §3
Motor strength was measured on the grip strength test (Bioseb) after rotarod session. Wild-type (WT) and GLUT1-DS transgenic mice were placed with 4 paws on the grid and maximal grip strength was recorded over 2 sessions with 5 minutes apart. Maximal grip strength over the 2 sessions was recorded.

EC50 (primary astrocytes [1]) [nM] | SMILES | mitochondrial activity (MTT colorimetric assay) (primary astrocytes [2]) | extracellular glucose levels in the brain (C57Bl/6J wild-type mice [3]) | extracellular lactate levels in the brain (C57Bl/6J wild-type mice [3]) | glucose uptake in the brain (18F-FDG in the whole brain) (C57Bl/6J wild-type mice [4]) | rotarod performance (latency to fall) (GLUT1-DS transgenic mice) | muscle strength (grip strength) [5]
< 1000 | COc1cc2ccnc(Cc3ccc(N4CCCC4=O)cc3)c2cc1OC [Compound 1, 1-[4-[(6,7-dimethoxy-1-isoquinolyl)methyl]phenyl]pyrrolidin-2-one] | none of the selected compounds had direct effect on mitochondrial activity | significantly increases extracellular glucose levels | significantly increases extracellular lactate levels | increases glucose uptake in the brain | increased rotarod performance | did not lead to any difference on muscle strength
< 1000 | COc1cc2ccnc(Nc3ccc(S(C)(=O)=O)cc3)c2cc1O [Compound 3, 6-methoxy-1-(4-methylsulfonylanilino)isoquinolin-7-ol] | none of the selected compounds had direct effect on mitochondrial activity | significantly increases extracellular glucose levels | significantly increases extracellular lactate levels | – | – | –
< 1000 | COc1cc2c(Nc3ccc(S(C)(=O)=O)cc3)nccc2cc1O [Compound 4, 7-methoxy-1-(4-methylsulfonylanilino)isoquinolin-6-ol] | none of the selected compounds had direct effect on mitochondrial activity | significantly increases extracellular glucose levels | significantly increases extracellular lactate levels | – | – | –
